Data taken from patent US10626112B2, “Heterocyclic sulfonamide derivative and medicine comprising same” (EA PHARMA CO., LTD., priority 2014, dated 2020).

Each molecule was assayed against human TRPA1 (Homo sapiens (Human), UniProt O75762) (assay: Measurement of TRPA1 antagonist activity (1): intracellular calcium increase). Conditions: 293T cells transfected with human TRPA1 expression plasmid; allylisothiocyanate 20 μM stimulation; intracellular calcium fluorescence; read-out: hTRPA1 IC50.
Assay type: cell-based
Summary of the method: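 HEK293T cells transiently transfected with full-length human TRPA1, loaded with Calcium4 dye in HBSS/20 mM HEPES pH 7.2. Test compound preincubated 10 min, then allylisothiocyanate added at 20 μM final and fluorescence change followed for 5 min. IC50 from sigmoid fit of percent inhibition relative to agonist and buffer controls.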

Chain of human TRPA1 (O75762 whole entry): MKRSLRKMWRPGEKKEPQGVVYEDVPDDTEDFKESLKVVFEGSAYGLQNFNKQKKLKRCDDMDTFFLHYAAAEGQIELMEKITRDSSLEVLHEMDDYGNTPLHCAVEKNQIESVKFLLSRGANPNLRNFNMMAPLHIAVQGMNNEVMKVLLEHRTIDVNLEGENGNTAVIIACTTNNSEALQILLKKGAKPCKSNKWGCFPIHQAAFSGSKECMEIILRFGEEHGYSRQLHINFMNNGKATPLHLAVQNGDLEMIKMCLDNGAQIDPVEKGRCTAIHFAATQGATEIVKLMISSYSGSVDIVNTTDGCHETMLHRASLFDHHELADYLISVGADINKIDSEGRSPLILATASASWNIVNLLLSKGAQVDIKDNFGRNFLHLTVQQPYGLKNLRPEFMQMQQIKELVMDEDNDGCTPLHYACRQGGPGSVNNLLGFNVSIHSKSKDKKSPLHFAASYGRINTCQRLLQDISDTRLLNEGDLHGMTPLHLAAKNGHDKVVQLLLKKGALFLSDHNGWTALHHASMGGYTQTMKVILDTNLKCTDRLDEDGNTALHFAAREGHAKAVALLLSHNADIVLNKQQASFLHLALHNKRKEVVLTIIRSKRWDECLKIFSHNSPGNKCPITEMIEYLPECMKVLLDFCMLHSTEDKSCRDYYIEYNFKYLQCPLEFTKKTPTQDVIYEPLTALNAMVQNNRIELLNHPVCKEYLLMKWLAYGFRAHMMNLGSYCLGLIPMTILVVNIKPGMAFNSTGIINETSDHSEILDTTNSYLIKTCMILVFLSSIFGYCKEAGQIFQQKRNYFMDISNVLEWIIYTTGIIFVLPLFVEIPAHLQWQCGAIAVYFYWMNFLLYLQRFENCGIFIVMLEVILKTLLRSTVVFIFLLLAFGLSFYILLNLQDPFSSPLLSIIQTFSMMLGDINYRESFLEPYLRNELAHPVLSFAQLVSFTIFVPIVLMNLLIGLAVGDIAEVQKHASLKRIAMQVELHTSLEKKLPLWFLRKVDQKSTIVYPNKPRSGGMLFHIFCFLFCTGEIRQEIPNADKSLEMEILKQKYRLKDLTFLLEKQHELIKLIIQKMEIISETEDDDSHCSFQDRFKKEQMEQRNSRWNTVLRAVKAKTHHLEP

Compound	IC50
O=C(NCc1cc(-c2cnc(C3CC3)nc2)ccc1F)[C@@H]1CCCN1S(=O)(=O)c1cc2ccccc2o1 [Example 173, (2S)-1-(benzofuran-2-ylsulfonyl)-N-[[5-(2-cyclopropylpyrimidin-5-yl)-2-fluoro-phenyl]methyl]pyrrolidine-2-carboxamide]	17 nM
O=C(NCc1ccc(F)c(OC(F)(F)F)c1)[C@@H]1CCCN1S(=O)(=O)c1cc2cc(F)ccc2o1 [Example 70, (2S)-1-(5-fluorobenzofuran-2-yl)sulfonyl-N-[[4-fluoro-3-(trifluoromethoxy)phenyl]methyl]-pyrrolidine-2-carboxamide]	11 nM
O=C(NCc1cccc(OCc2ccccc2)c1)[C@@H]1CCCN1S(=O)(=O)c1cc2cnccc2o1 [Example 267, (2S)-N-[(3-benzyloxyphenyl)methyl]-1-furo[3,2-c]pyridin-2-ylsulfonyl-pyrrolidine-2-carboxamide]	6.4 nM
CC(C)(C)c1ccc(-c2ccnc(CNC(=O)[C@@H]3CCCN3S(=O)(=O)c3cc4ccccc4o3)c2)cc1 [Example 285, (2S)-1-(benzofuran-2-ylsulfonyl)-N-[[4-(4-tert-butylphenyl)-2-pyridyl]methyl]pyrrolidine-2-carboxamide]	30 nM
N#Cc1ccc(-c2cc(CNC(=O)[C@@H]3CCCN3S(=O)(=O)c3cc4ccccc4o3)ccn2)c(OCc2ccccc2)c1 [Example 126, (2S)-1-(benzofuran-2-ylsulfonyl)-N-[[2-(2-benzyloxy-4-cyano-phenyl)-4-pyridyl]methyl]pyrrolidine-2-carboxamide]	78 nM
O=C(NCc1cccc(OC(F)(F)F)c1)[C@@H]1CCCN1S(=O)(=O)c1cc2ccccc2o1 [Example 62, (2S)-1-(benzofuran-2-ylsulfonyl)-N-[[3-(trifluoromethoxy)phenyl]methyl]-pyrrolidine-2-carboxamide]	60 nM
O=C(NCc1ccc(F)c(-c2ccc(C(F)(F)F)cc2O)c1)[C@@H]1CCCN1S(=O)(=O)c1cc2ccccc2o1 [Example 308]	360 nM
O=C(NCc1cccc(/C=C/c2ccc(C(F)(F)F)cc2)c1)[C@@H]1CCCN1S(=O)(=O)c1cc2ccccc2o1 [Example 317, (2S)-1-(benzofuran-2-ylsulfonyl)-N-[[3-[(E)-2-[4-(trifluoromethyl)phenyl]vinyl]phenyl]methyl]pyrrolidine-2-carboxamide]	31 nM
CN(C)c1ccc(-c2ccc(F)c(CNC(=O)[C@@H]3CCCN3S(=O)(=O)c3cc4ccccc4o3)c2)cn1 [Example 172, (2S)-1-(benzofuran-2-ylsulfonyl)-N-[[5-[6-(dimethylamino)-3-pyridyl]-2-fluoro-phenyl]methyl]pyrrolidine-2-carboxamide]	11 nM
CC(C)(C)OC(=O)c1ccc(CNC(=O)[C@@H]2CCCN2S(=O)(=O)c2cc3ccccc3o2)cc1-c1ccc(C(F)(F)F)cc1 [Example 336, tert-butyl 4-[[[(2S)-1-(benzofuran-2-ylsulfonyl)pyrrolidine-2-carbonyl]amino]methyl]-2-[4-(trifluoromethyl)phenyl]-benzoate]	5.8 nM
C#CCN([C@@H](C)C(=O)NCc1ccnc(-c2ccc(C(F)(F)F)cc2O)c1)S(=O)(=O)c1cc2cc(F)ccc2o1 [Example 275, (2S)-2-[(5-fluorobenzofuran-2-yl)sulfonyl-2-propynylamino]-N-[[2-[2-hydroxy-4-(trifluoromethyl)phenyl]-4-pyridyl]methyl]propanamide]	3.8 nM
N#Cc1cncc(-c2cccc(CNC(=O)[C@@H]3CCCN3S(=O)(=O)c3cc4cc(F)ccc4o3)c2)c1 [Example 163, (2S)-N-[[3-(5-cyano-3-pyridyl)phenyl]methyl]-1-(5-fluorobenzofuran-2-yl)sulfonyl-pyrrolidine-2-carboxamide]	31 nM
O=C(NCc1cccc(-c2ccc(F)cc2)c1)[C@@H]1CCCN1S(=O)(=O)c1cc2cc(F)ccc2o1 [Example 155, (2S)-1-(5-fluorobenzofuran-2-yl)sulfonyl-N-[[3-(4-fluorophenyl)phenyl]methyl]-pyrrolidine-2-carboxamide]	4 nM
O=C(NCc1ccc(COc2ccccc2)cc1)[C@@H]1CCCN1S(=O)(=O)c1cc2ccccc2o1 [Example 58, (2S)-1-(benzofuran-2-ylsulfonyl)-N-[[4-(phenoxymethyl)phenyl]methyl]-pyrrolidine-2-carboxamide]	430 nM
CNC(=O)c1ccc(-c2cccc(CNC(=O)[C@@H]3CCCN3S(=O)(=O)c3cc4cc(F)ccc4o3)c2)cn1 [Example 162, 5-[3-[[[(2S)-1-(5-fluorobenzofuran-2-yl)sulfonylpyrrolidine-2-carbonyl]amino]methyl]phenyl]-N-methyl-pyridine-2-carboxamide]	51 nM

Second part, the molecule after the results:

IC50	Compound
1.3 nM	O=C(NCc1cc(-c2ccc(C(F)(F)F)cn2)ccn1)[C@@H]1C=CCN1S(=O)(=O)c1cc2cc(F)ccc2o1 [Example 225, (2S)-1-(5-fluorobenzofuran-2-yl)sulfonyl-N-[[4-[5-(trifluoromethyl)-2-pyridyl]-2-pyridyl]methyl]-2,5-dihydropyrrole-2-carboxamide]
2 nM	O=C(NCc1ccnc(-c2ccc(OC(F)F)cc2)c1)[C@@H]1CCCN1S(=O)(=O)c1cc2cc(F)ccc2o1 [Example 130, (2S)-N-[[2-[4-(difluoromethoxy)phenyl]-4-pyridyl]methyl]-1-(5-fluorobenzofuran-2-yl)sulfonyl-pyrrolidine-2-carboxamide]
10 nM	C[C@H](NS(=O)(=O)c1cc2cc(F)ccc2o1)C(=O)NCc1cccc(-c2ccc(C(F)(F)F)nc2)c1 [Example 106, (2S)-2-[(5-fluorobenzofuran-2-yl)sulfonylamino]-N-[[3-[6-(trifluoromethyl)-3-pyridyl]phenyl]methyl]propanamide]
4 nM	O=C(NCc1cc(-c2cnc(C(F)(F)F)nc2)ncn1)[C@@H]1CCCN1S(=O)(=O)c1cc2ccccc2o1 [Example 207, (2S)-1-(benzofuran-2-ylsulfonyl)-N-[[6-[2-(trifluoromethyl)pyrimidin-5-yl]pyrimidin-4-yl]methyl]pyrrolidine-2-carboxamide]
3.8 nM	O=C(NCc1cc(-c2ccc(C(F)(F)F)cc2)ncn1)[C@@H]1CCCN1S(=O)(=O)c1cc2cnccc2o1 [Example 270, (2S)-1-furo[3,2-c]pyridin-2-ylsulfonyl-N-[[6-[4-(trifluoromethyl)phenyl]-pyrimidin-4-yl]methyl]pyrrolidine-2-carboxamide]
19 nM	O=C(NCc1cc(-c2ccc(C(F)(F)F)cc2)cnn1)[C@@H]1CCCN1S(=O)(=O)c1cc2ccccc2o1 [Example 210, (2S)-1-(benzofuran-2-ylsulfonyl)-N-[[5-[4-(trifluoromethyl)phenyl]-pyridazin-3-yl]methyl]pyrrolidine-2-carboxamide]
12 nM	O=C(NCc1cc(-c2ccc(C(F)(F)F)cn2)ccn1)[C@@H]1CCCN1S(=O)(=O)c1cc2cnccc2o1 [Example 272, (2S)-1-furo[3,2-c]pyridin-2-ylsulfonyl-N-[[4-[5-(trifluoromethyl)-2-pyridyl]-2-pyridyl]methyl]pyrrolidine-2-carboxamide]
12 nM	O=C(NCc1cc(-c2ccc(C(F)(F)F)cn2)ccn1)[C@@H]1CC(F)(F)CN1S(=O)(=O)c1cc2cc(F)ccc2o1 [Example 229, (2S)-4,4-difluoro-1-(5-fluorobenzofuran-2-yl)sulfonyl-N-[[4-[5-(trifluoromethyl)-2-pyridyl]-2-pyridyl]methyl]pyrrolidine-2-carboxamide]
